In BindingDB's records for doi:10.1021/jm021014d (University of Bari Aldo Moro, 2003) one finds Ki data, which are given here for five compounds.

Each structure is given as a SMILES string. pKi: −log10 of the molar value. Counter-ions that a name gives are not always drawn.

This assay in a line: Inhibition of [3H]pentazocine binding to Sigma receptor type 1 in guinea pig brain membrane without cerebellum.
`C(/C=C/c1ccc2c(c1)OCO2)=C\CN1CCCCC1` [1-(5-Benzo[1,3]dioxol-5-yl-penta-2,4-dienyl)-piperidine] had a pKi of 9.07.
Then `CC1CCN(C[C@H](C)COc2ccc(Cl)cc2)CC1` [1-[3-(4-Chloro-phenoxy)-2-methyl-propyl]-4-methyl-piperidine; hydrochloride], with 8.96; and `CC1CCN(C[C@@H](C)COc2ccc(Cl)cc2)CC1` [1-[3-(4-Chloro-phenoxy)-2-methyl-propyl]-4-methyl-piperidine; hydrochloride], with 8.77; and `CC1CCN([C@@H](C)COc2ccc(Cl)cc2)CC1` [1-[2-(4-Chloro-phenoxy)-1-methyl-ethyl]-4-methyl-piperidine; hydrochloride], with 9.47.
Then `CC1CCN([C@H](C)COc2ccc(Cl)cc2)CC1` [1-[2-(4-Chloro-phenoxy)-1-methyl-ethyl]-4-methyl-piperidine; hydrochloride], with 8.93.
